From patent US12595243B2, “Modulators of extracellular signal-regulated kinase” (GEN1E LIFESCIENCES INC., priority 2023, dated 2026)
Where two headings read alike, the source gives them in different places.

Key:
[1] = tested on: immortalized human T lymphocyte Jurkat cells; assay: Cytotoxicity in cancer cell lines (CellTiter-Glo), Jurkat; type: cell-based
Source text: (§1) All cells were obtained from ATCC. […] Normocin® was obtained from InvivoGen. FBS was obtained from Gibco. […] All test compounds were synthesized as described herein.

[2] = tested on: melanoma cell line RPMI-7951; assay: Cytotoxicity in cancer cell lines (CellTiter-Glo), RPMI-7951; type: cell-based; conditions: Homo sapiens
Source text: as §1

[3] = tested on: melanoma cell line Sk-Mel-28; assay: Cytotoxicity in cancer cell lines (CellTiter-Glo), Sk-Mel-28; type: cell-based
Source text: as §1

[4] = tested on: melanoma cell line A375; assay: Cytotoxicity in cancer cell lines (CellTiter-Glo), A375; conditions: A375 cells, mean of three tests
Experimental: (§2) The cytotoxicity of test compounds was determined for several cell lines including melanoma cell line RPMI-7951, melanoma cell line Sk-Mel-28, melanoma cell line A375, melanoma cell line U87, glioblastoma cell line U87, immortalized human T lymphocyte Jurkat cells, and human pancreatic carcinoma cell line PL-45.
(§3) All cells were obtained from ATCC. RPMI, DMEM, EMEM and pen/strep were obtained from Invitrogen. Normocin® was obtained from InvivoGen. FBS was obtained from Gibco. Cell viability reagent Cell-titer glow was obtained from Promega.
(§4) The growth media for A375 and PL45 cells was DMEM supplemented with antibiotic/anti-mycotic pen/strep and Normocin® (InvivoGen) and 10% FBS.
(§5) Ten (10) mM solutions of each of the test compounds were prepared in dimethyl sulfoxide (DMSO) and serially diluted in DMSO to provide solutions having concentrations of the test compound of 3 mM, 1 mM, 0.3 mM, 0.1 mM, 0.03 mM, or 0.01 mM. Forty (40) μL of each of the solutions were further diluted to 400 μL in the cell specific complete media to provide 10× stock solutions having a 1 mM, 300 μM, 100 μM, 30 μM, 10 μM, 3 μM, 1 μM, or 0.3 μM of the test compound. Ten (10) μL of DMSO was diluted to 400 μL in the complete media and used as the 0 μM control.
(§6) For the cytotoxicity studies, all cells were grown in their respective complete media. Confluent cells were harvested and plated into two 96-well tissue culture treated plates at 5,000-8,000 cells/wells in 180 μL media. Twenty (20) μL of each of the 10× stock solutions were added to the wells and mixed.
(§7) After incubating for 24 h, media was aspirated out and replaced with 180 μL/well of the fresh media and 20 μL/well of the 10× stock solutions in duplicate wells in duplicate plates (Plates 1 and 2; and 3 and 4) and in quadruplicate wells (Plate 5) were added, mixed and cultured for 48 hours. The final concentrations of each test compound were 100 μM, 30 μM, 10 μM, 3 μM, 1 μM, 0.3 μM, 0.1 μM and 0 μM.
(§8) After 48 hours and/or 72 hours following addition of the test compounds, one plate each was removed from the incubator, the media aspirated out, 100 μL of CellTiter-Glo® reagent added to each well, and the resulting luminescent signals measured using a VICTOR-2® plate reader.
(§9) The data from the plate reader were exported to GraphPad (Prism) and data processed using non-linear regression and EC50 value determined.

[5] = tested on: human pancreatic carcinoma cell line PL-45; assay: Cytotoxicity in cancer cell lines (CellTiter-Glo), PL-45; conditions: PL45, 48 h, read-out: Cytotoxicity EC50 at 48 hours, PL-45
Experimental: as §2, §3, §4, §5, §6, §7, §8, §9

[6] = tested on: glioblastoma cell line U87; assay: Cytotoxicity in cancer cell lines (CellTiter-Glo), U87; type: cell-based
Source text: as §1

[7] = 48 h, Jurkat cells, mean of three tests, read-out: Cytotoxicity EC50 at 48 hours, Jurkat
[8] = RPMI-7951, 48 h, read-out: Cytotoxicity EC50 at 48 hours, RPMI
[9] = Homo sapiens, SK-MEL-28, 48 h, 48 h, Sk-Mel-28 cells, mean of three tests, read-out: Cytotoxicity EC50 at 48 hours, Sk mel
[10] = Homo sapiens, A-375, 48 h, read-out: Cytotoxicity EC50 at 48 hours, A375, 48 h
[11] = Jurkat, 48 h, read-out: Cytotoxicity EC50 at 48 hours, Jurkat
[12] = Homo sapiens, U-87 MG, 48 h, read-out: Cytotoxicity EC50 at 48 hours, U87
[13] = RPMI-7951, 72 h, read-out: Cytotoxicity EC50 at 72 hours, RPMI
[14] = Homo sapiens, SK-MEL-28, 48 h, read-out: Cytotoxicity EC50 at 48 hours, Sk mel
[15] = Homo sapiens, SK-MEL-28, 72 h, read-out: Cytotoxicity EC50 at 72 hours, Sk mel
[16] = Homo sapiens, A-375, 72 h, read-out: Cytotoxicity EC50 at 72 hours, A375, 72 h
[17] = 72 h, Jurkat cells, mean of three tests, read-out: Cytotoxicity EC50 at 72 hours, Jurkat
[18] = Homo sapiens, U-87 MG, 48 h; U87 cells; mean of three tests; read-out: Cytotoxicity EC50 at 48 hours, U87
[19] = Homo sapiens, U-87 MG, 72 h; U87 cells; mean of three tests; read-out: Cytotoxicity EC50 at 72 hours, U87
[20] = Homo sapiens, SK-MEL-28, 72 h, 72 h, Sk-Mel-28 cells, mean of three tests, read-out: Cytotoxicity EC50 at 72 hours, Sk mel
[21] = Jurkat, 72 h, read-out: Cytotoxicity EC50 at 72 hours, Jurkat
[22] = Homo sapiens, U-87 MG, 72 h, read-out: Cytotoxicity EC50 at 72 hours, U87

Row | SMILES | EC50 [1, 7] | EC50 [2, 8] | EC50 [3, 9] | EC50 [4, 10] | EC50 [2, 13] | EC50 [4, 16] | EC50 [6, 18] | other results
1 | O=S1(=O)C=CC(OCCc2ccc3ccccc3c2)C1 (centres unmarked) [(7), 3-(2-(naphthalen-2-yl)ethoxy)-2,3-dihydrothiophene 1,1-dioxide] | 10 µM | 19 µM | 95 µM | 29 µM | – | – | – | –
2 | O=S1(=O)C=CC(OS(=O)(=O)c2ccc(Cc3ccccc3)cc2)C1 (centres unmarked) [(28), 1,1-dioxido-2,3-dihydrothiophen-3-yl 4-benzylbenzenesulfonate] | – | – | – | 14 µM | – | – | – | EC50 [5]: 900 nM
3 | COc1cc(Oc2ccccc2)ccc1S(=O)(=O)OC1C=CS(=O)(=O)C1 (centres unmarked) [(41), 1,1-dioxido-2,3-dihydrothiophen-3-yl 2-methoxy-4-phenoxybenzenesulfonate] | – | – | – | 0.6 µM | – | – | – | EC50 [5]: 500 nM
4 | O=S1(=O)C=CC(OS(=O)(=O)c2cccc(OC3CCCCC3)c2)C1 (centres unmarked) [(37), 1,1-dioxido-2,3-dihydrothiophen-3-yl 3-(cyclohexyloxy)benzenesulfonate] | – | – | – | 2.8 µM | – | – | – | EC50 [5]: 1600 nM
5 | COc1cc(S(=O)(=O)OC2C=CS(=O)(=O)C2)ccc1Oc1ccccc1 (centres unmarked) [(43), 1,1-dioxido-2,3-dihydrothiophen-3-yl 3-methoxy-4-phenoxybenzenesulfonate] | – | – | – | 3.12 µM | – | – | – | EC50 [5]: 610 nM
6 | O=S1(=O)C=CC(OS(=O)(=O)c2ccc(S(=O)(=O)c3ccccc3)cc2)C1 (centres unmarked) [(45), 1,1-dioxido-2,3-dihydrothiophen-3-yl 4-(phenylsulfonyl)benzenesulfonate] | – | – | – | 25 µM | – | – | – | EC50 [5]: 2400 nM
7 | O=S1(=O)C=CC(OS(=O)(=O)c2ccc(C(O)c3ccccc3)cc2)C1 (centres unmarked) [(39), 1,1-dioxido-2,3-dihydrothiophen-3-yl 4-(hydroxy(phenyl)methyl)benzenesulfonate] | – | – | – | 1.3 µM | – | – | – | EC50 [5]: 1500 nM
8 | O=C(Nc1ccc(-c2ccccc2)cc1)OC1C=CS(=O)(=O)C1 (centres unmarked) [(11), 1,1-dioxido-2,3-dihydrothiophen-3-yl [1,1′-biphenyl]-4-ylcarbamate] | – | 25 µM | – | – | 12 µM | 97 µM | – | EC50 [1, 11]: 10 µM; EC50 [6, 12]: 3 µM; EC50 [3, 14]: 66 µM; EC50 [3, 15]: 62 µM
9 | O=S1(=O)C=CC(OCc2ccc(Oc3ccccc3)cc2)C1 (centres unmarked) [(6), 3-((4-phenoxybenzyl)oxy)-2,3-dihydrothiophene 1,1-dioxide] | > 100 µM | 40 µM | 69 µM | 24 µM | 24 µM | 19 µM | > 100 µM | EC50 [1, 17]: > 100 µM; EC50 [6, 19]: 46 µM; EC50 [3, 20]: 48 µM
10 | CCOS(=O)(=O)c1ccc2ccccc2c1 [(31), ethyl naphthalene-2-sulfonate] | – | – | – | > 100 µM | – | – | – | –
11 | O=S1(=O)C=CC(OS(=O)(=O)c2ccc(-c3ccccc3)cc2)C1 (centres unmarked) [(33), 1,1-dioxido-2,3-dihydrothiophen-3-yl [1,1′-biphenyl]-4-sulfonate] | – | – | – | – | – | – | – | EC50 [5]: 2300 nM; EC50 ([4]; read-out: Cytotoxicity EC50 at 48 hours, A375, 48 h): 1 µM
12 | CN(C1=CS(=O)(=O)CC1)S(=O)(=O)c1ccc2ccccc2c1 [(19), N-(1,1-dioxido-4,5-dihydrothiophen-3-yl)-N-methylnaphthalene-2-sulfonamide] | > 100 µM | > 100 µM | 82 µM | > 100 µM | – | – | > 100 µM | EC50 ([3]; 48 h, Sk-Mel-28 cells, mean of three tests, read-out: Cytotoxicity EC50 at 48 hours, Sk mel): > 100 µM
13 | O=C(COC1C=CS(=O)(=O)C1)c1ccc(-c2ccccc2)cc1 (centres unmarked) [(9), 1-([1,1′-biphenyl]-4-yl)-2-((1,1-dioxido-2,3-dihydrothiophen-3-yl)oxy)ethan-1-one] | – | 11 µM | – | 19 µM | 10 µM | 47 µM | – | EC50 [1, 11]: 22 µM; EC50 [1, 21]: 9 µM; EC50 [6, 12]: 32 µM; EC50 [6, 22]: 28 µM; EC50 [3, 14]: 71 µM; EC50 [3, 15]: 12 µM
14 | O=S1(=O)C=CC(OCc2ccc(-c3ccccc3)cc2)C1 (centres unmarked) [(5), 3-([1,1′-biphenyl]-4-ylmethoxy)-2,3-dihydrothiophene 1,1-dioxide] | 6 µM | 72 µM | > 100 µM | 80 µM | 86 µM | 75 µM | > 100 µM | EC50 [1, 17]: 2 µM; EC50 [6, 19]: > 100 µM; EC50 [3, 20]: > 100 µM
15 | O=S1(=O)C=CC(OS(=O)(=O)c2ccc(COc3ccccc3)cc2)C1 (centres unmarked) [(29), 1,1-dioxido-2,3-dihydrothiophen-3-yl 4-(phenoxymethyl)benzenesulfonate] | – | – | – | 10 µM | – | – | – | EC50 [5]: 1000 nM
16 | O=C(COC1C=CS(=O)(=O)C1)c1ccc2ccccc2c1 (centres unmarked) [(8), 2-((1,1-dioxido-2,3-dihydrothiophen-3-yl)oxy)-1-(naphthalen-2-yl)ethan-1-one] | 0.5 µM | 20 µM | – | 11 µM | 16 µM | 46 µM | – | EC50 [1, 17]: 0.5 µM; EC50 ([6]; Homo sapiens, U-87 MG; 48 h; U87 cells; mean of three tests; read-out: Cytotoxicity EC50 at 48 hours, U87): > 100 µM; EC50 ([6]; Homo sapiens, U-87 MG; 72 h; U87 cells; mean of three tests; read-out: Cytotoxicity EC50 at 72 hours, U87): 37 µM; EC50 [3, 14]: > 100 µM; EC50 [3, 15]: 77 µM
17 | CN(C1=CCS(=O)(=O)C1)S(=O)(=O)c1ccc2ccccc2c1 [(20), N-(1,1-dioxido-2,5-dihydrothiophen-3-yl)-N-methylnaphthalene-2-sulfonamide] | > 100 µM | > 100 µM | > 100 µM | > 100 µM | – | – | > 100 µM | –
18 | CN(C1C=CS(=O)(=O)C1)S(=O)(=O)c1ccc2ccccc2c1 (centres unmarked) [(2), N-(1,1-dioxido-2,3-dihydrothiophen-3-yl)-N-methylnaphthalene-2-sulfonamide] | 53 µM | 85 µM | > 100 µM | > 100 µM | – | – | > 100 µM | –
19 | O=S1(=O)C=CC(NS(=O)(=O)c2ccc3ccccc3c2)C1 (centres unmarked) [(3), N-(1,1-dioxido-2,3-dihydrothiophen-3-yl)naphthalene-2-sulfonamide] | 6 µM | 19 µM | > 100 µM | 14 µM | – | – | 100 µM | –
20 | O=C(Cc1ccc2ccccc2c1)NC1C=CS(=O)(=O)C1 (centres unmarked) [(15), N-(1,1-dioxido-2,3-dihydrothiophen-3-yl)-2-(naphthalen-2-yl)acetamide] | 26 µM | 36 µM | 73 µM | 42 µM | – | – | 100 µM | –
21 | O=C(NC1C=CS(=O)(=O)C1)c1ccc2ccccc2c1 (centres unmarked) [(14), N-(1,1-dioxido-2,3-dihydrothiophen-3-yl)-2-naphthamide] | 10 µM | 12 µM | > 100 µM | 86 µM | 9.4 µM | 70 µM | > 100 µM | EC50 [3, 20]: 100 µM
22 | CN(C1CCS(=O)(=O)C1)S(=O)(=O)c1ccc2ccccc2c1 (centres unmarked) [(16)] | 9 µM | > 100 µM | > 100 µM | > 100 µM | > 100 µM | 100 µM | > 100 µM | EC50 [1, 17]: 8 µM; EC50 [6, 19]: > 100 µM; EC50 [3, 20]: > 100 µM
23 | O=S1(=O)C=CC(OCc2ccc3ccccc3c2)C1 (centres unmarked) [(4), 3-(naphthalen-2-ylmethoxy)-2,3-dihydrothiophene 1,1-dioxide] | 7 µM | 44 µM | 78 µM | 19 µM | 26 µM | 5 µM | > 100 µM | EC50 [1, 17]: 4 µM; EC50 [6, 19]: 53 µM; EC50 [3, 20]: 42 µM
24 | O=C(Nc1ccc2ccccc2c1)OC1C=CS(=O)(=O)C1 (centres unmarked) [(10), 1,1-dioxido-2,3-dihydrothiophen-3-yl naphthalen-2-ylcarbamate] | – | 39 µM | – | 31 µM | 28 µM | 46 µM | – | EC50 [1, 11]: > 100 µM; EC50 [1, 21]: 8 µM; EC50 [6, 12]: > 100 µM; EC50 [6, 22]: 31 µM; EC50 [3, 14]: 38 µM; EC50 [3, 15]: 25 µM
25 | O=C(Nc1ccc2ccccc2c1)NC1C=CS(=O)(=O)C1 (centres unmarked) [(12), 1-(1,1-dioxido-2,3-dihydrothiophen-3-yl)-3-(naphthalen-2-yl)urea] | – | 100 µM | – | > 100 µM | – | – | – | EC50 [1, 11]: > 100 µM; EC50 [6, 12]: > 100 µM; EC50 [3, 14]: > 100 µM
26 | O=C(Nc1ccc(-c2ccccc2)cc1)NC1C=CS(=O)(=O)C1 (centres unmarked) [(13), 1-([1,1′-biphenyl]-4-yl)-3-(1,1-dioxido-2,3-dihydrothiophen-3-yl)urea] | 86 µM | > 100 µM | > 100 µM | > 100 µM | – | – | 1 µM | –
27 | CC(C)OS(=O)(=O)c1ccc2ccccc2c1 [(32), isopropyl naphthalene-2-sulfonate] | – | – | – | > 100 µM | – | – | – | –
